± gives the expanded uncertainty stated by the source.
Conditions: Liquid, Ebulliometric method (Recirculating still)

| vapor or sublimation pressure (273.15 K) | vapor or sublimation pressure (288.15 K) | vapor or sublimation pressure (303.15 K) | vapor or sublimation pressure (318.15 K) | vapor or sublimation pressure (333.15 K) | vapor or sublimation pressure (348.15 K) | SMILES |
| --- | --- | --- | --- | --- | --- | --- |
| 626 ± 3 kPa | 972 ± 4 kPa | 1442 ± 6 kPa | 2063 ± 9 kPa | 2875 ± 12 kPa |  | CC(F)(F)F [1,1,1-trifluoroethane] |
| 133 ± 2 kPa | 224 ± 2 kPa | 353 ± 2 kPa | 538 ± 3 kPa | 787 ± 4 kPa | 1110 ± 5 kPa | C=C(C)C [2-methylpropene] |

— the NIST ThermoML archive (doi:10.1016/j.jct.2008.01.014)
